Target: T1, Kv1.1 alpha subunit T1 domain binding to Kvbeta1 subunits (Rattus norvegicus, UniProt P63144)
T1 construct: expression of Kv1.1 alpha subunit T1 domains in E. coli; His; made in house; host or cells: E. coli (cleared lysates)
T1 sequence (P63144 1-401): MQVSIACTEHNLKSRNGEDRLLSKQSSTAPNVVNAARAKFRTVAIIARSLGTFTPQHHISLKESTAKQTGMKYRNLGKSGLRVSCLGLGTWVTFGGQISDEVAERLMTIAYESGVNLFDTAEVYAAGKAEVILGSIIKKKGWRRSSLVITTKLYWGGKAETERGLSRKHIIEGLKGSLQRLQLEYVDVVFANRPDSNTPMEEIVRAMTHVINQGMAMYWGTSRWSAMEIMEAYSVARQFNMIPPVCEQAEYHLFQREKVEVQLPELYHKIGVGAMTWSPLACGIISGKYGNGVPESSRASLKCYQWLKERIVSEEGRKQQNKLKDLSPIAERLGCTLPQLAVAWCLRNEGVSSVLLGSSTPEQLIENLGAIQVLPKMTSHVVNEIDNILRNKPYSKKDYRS
Test: Kv1.x T1 / Kvbeta subunit protein-protein interaction assay (ELISA)
Settings: His-/FLAG-tagged Kv1.1 T1 domain lysate; biotin-tagged Kvbeta1 immobilised on streptavidin plates; anti-FLAG/HRP ELISA detection; read-out: IC50 for inhibition of Kv1.1 alpha subunit T1 binding to Kvbeta1 subunits
Procedure: Compounds of Examples 3, 13-15 and 18-22 and 24-26 were examined for their ability to inhibit the interaction between Kv1.x channels and Kvbeta subunits using a protein-protein interaction assay.
Cloning of rat His- and biotin-tagged Kvbeta1 subunit cDNA, expression of Kvbeta1 subunits in E. coli and lysis of E. coli containing Kvbeta1 subunits were carried out as previously described (Kozlowski et al., patent application WO03078464).
Cloning of His- and FLAG-tagged Kv1.1 alpha subunit T1 domain cDNA, expression of Kv1.1 alpha subunit T1 domains in E. coli and lysis of E. coli containing Kv1.1 alpha subunit T1 domains were carried out as previously described (Kozlowski et al., patent application WO03078464).
To 96-well streptavidin coated microtitre plates, 100 μl of optimized concentrations of Kvbeta1 subunit cleared lysates (typically 1 in 10 dilutions in PBS-Tween) were added to each well. Plates were incubated at room temperature for 1 hour prior to use. Each well was then washed 3 times with 300 μl of PBS-Tween. Following the final wash, 80 μl of PBS-Tween was added to each well.
The test compounds (dissolved in a suitable vehicle) were added to the wells of a prepared 96-well microliter plate to achieve a range of concentrations to maintain a final assay volume of 100 μl. Plates were incubated for 30 minutes at room temperature.
After incubation with test compounds, 100 μl of Kv1.1 alpha subunit T1 domain cleared lysate (diluted 1 in 10 in PBS-Tween) was added to each well and incubated for 60 minutes at room temperature on a shaker. Unbound Kv1.1 alpha subunit T1 domain was removed by washing 3 times in 300 μl of PBS-Tween. Bound Kv1.1 alpha subunit T1 domain was estimated by using appropriately diluted mouse anti-FLAG antibody and anti-mouse IgG secondary antibody HRP conjugate using standard ELISA procedures. HRP was detected as previously described (Kozlowski et al., patent application WO03078464).
Data were analyzed using standard software packages. The test compounds were examined for their ability to inhibit the binding of Kv1.1 alpha subunit T1 domain to Kvbeta1 subunits to determine inhibition as a percentage of maximal binding in the absence of any test compound. Results are presented as the half maximal inhibitory concentration (IC50) for inhibition of Kv1.1 alpha subunit T1 binding to Kvbeta1 subunits.

Compound	IC50
Cc1ccc(S(=O)(=O)NC(=O)Nc2ccc3c(c2)CCN(C(=O)NS(=O)(=O)c2ccc(C)cc2)CC3)cc1 [Example 15, N-[(4-Methylphenyl)sulfonyl]-7-({[(4-methylphenyl)sulfonyl]carbamoyl}amino)-1,2,4,5-tetrahydro-3H-3-benzazepine-3-carboxamide]	59 µM
Cc1cccc(S(=O)(=O)NC(=O)Nc2ccc3c(c2)CCN(C(=O)NS(=O)(=O)c2cccc(C)c2)CC3)c1 [Example 17, N-[(3-Methylphenyl)sulfonyl]-7-({[(3-methylphenyl)sulfonyl]carbamoyl}amino)-1,2,4,5-tetrahydro-3H-3-benzazepine-3-carboxamide]	47 µM
O=C(Nc1ccc2c(c1)CCN(C(=O)NS(=O)(=O)c1ccccc1Cl)CC2)NS(=O)(=O)c1ccccc1Cl [Example 18, N-[(2-Chlorophenyl)sulfonyl]-7-({[(2-chlorophenyl)sulfonyl]carbamoyl}amino)-1,2,4,5-tetrahydro-3H-3-benzazepine-3-carboxamide]	181 µM
O=C(Nc1ccc2c(c1)CCN(C(=O)NS(=O)(=O)c1ccc(Cl)cc1)CC2)NS(=O)(=O)c1ccc(Cl)cc1 [Example 19, N-[(4-Chlorophenyl)sulfonyl]-7-({[(4-chlorophenyl)sulfonyl]carbamoyl}amino)-1,2,4,5-tetrahydro-3H-3-benzazepine-3-carboxamide]	51 µM
O=C(Nc1ccc2c(c1)CCN(C(=O)NS(=O)(=O)c1ccc(F)cc1)CC2)NS(=O)(=O)c1ccc(F)cc1 [Example 20, N-[(4-Fluorophenyl)sulfonyl]-7-({[(4-fluorophenyl)sulfonyl]carbamoyl}amino)-1,2,4,5-tetrahydro-3H-3-benzazepine-3-carboxamide]	191 µM
Cc1ccc(S(=O)(=O)NC(=O)N2CCc3ccc(NS(=O)(=O)c4ccc(C)cc4)cc3CC2)cc1 [Example 24, N-[(4-Methylphenyl)sulfonyl]-7-([(4-methylphenyl)sulfonyl]amino)-1,2,4,5-tetrahydro-3H-3-benzazepine-3-carboxamide]	81 µM
Cc1ccc(S(=O)(=O)NC(=O)N2CCc3ccc(NS(=O)(=O)c4ccc(-c5ccccc5)cc4)cc3CC2)cc1 [Example 25, N-[(4-Methylphenyl)sulfonyl]-7-([(4-biphenyl)sulfonyl]amino)-1,2,4,5-tetrahydro-3H-3-benzazepine-3-carboxamide]	88 µM
N-benzylaminocarbonyl-7-[({[(4-methylphenyl)sulfonyl]amino}carbonyl)amino]-1,2,4,5-tetrahydro-3H-3-benzazepine-3-carboxamide [Example 3]	50 µM

The next compounds have a lower IC50 than those just listed; values first:

IC50	Compound
41 µM	CC(C)(C)c1ccc(S(=O)(=O)NC(=O)Nc2ccc3c(c2)CCN(C(=O)NS(=O)(=O)c2ccc(C(C)(C)C)cc2)CC3)cc1 [Example 22, N-[(4-tert-Butylphenyl)sulfonyl]-7-({[(4-tert-butylphenyl)sulfonyl]carbamoyl}-amino)-1,2,4,5-tetrahydro-3H-3-benzazepine-3-carboxamide]
38 µM	COc1ccc(S(=O)(=O)NC(=O)Nc2ccc3c(c2)CCN(C(=O)NS(=O)(=O)c2ccc(OC)cc2)CC3)cc1 [Example 21, N-[(4-Methoxyphenyl)sulfonyl]-7-({[(4-methoxyphenyl)sulfonyl]-carbamoyl}amino)-1,2,4,5-tetrahydro-3H-3-benzazepine-3-carboxamide]
30 µM	Cc1ccc(S(=O)(=O)NC(=O)Nc2ccc3c(c2)CCN(C(=O)NS(=O)(=O)c2ccc(C)cc2)C3)cc1 [Example 13, N-[(4-methylphenyl)sulfonyl]-6-({[(4-methylphenyl)sulfonyl]-carbamoyl}amino)-3,4-dihydroisoquinoline-2(1H)-carboxamide]
16 µM	Cc1ccc(S(=O)(=O)NC(=O)Nc2ccc3c(c2)CN(C(=O)NS(=O)(=O)c2ccc(C)cc2)C3)cc1 [Example 14, N-[(4-methylphenyl)sulfonyl]-5-[({[(4-methylphenyl)sulfonyl]amino}carbonyl)amino]-1,3-dihydro-2H-isoindole-2-carboxamide]
